# From BigSolDB 2.1
compound,measurement,setting,value
Cc1c(Br)cccc1C(=O)O,solubility (mole fraction),"in DMF, 278.15 K",0.104
same,solubility (mole fraction),"in DMF, 283.15 K",0.126
same,solubility (mole fraction),"in DMF, 288.15 K",0.152
same,solubility (mole fraction),"in DMF, 293.15 K",0.181
same,solubility (mole fraction),"in DMF, 298.15 K",0.216
same,solubility (mole fraction),"in DMF, 303.15 K",0.258
same,solubility (mole fraction),"in DMF, 308.15 K",0.305
same,solubility (mole fraction),"in DMF, 313.15 K",0.361
same,solubility (mole fraction),"in DMF, 318.15 K",0.424
same,solubility (mole fraction),"in DMF, 323.15 K",0.5
same,solubility (mole fraction),"in DMF, 328.15 K",0.584
same,solubility (mole fraction),"in THF, 278.15 K",0.169
same,solubility (mole fraction),"in THF, 283.15 K",0.183
same,solubility (mole fraction),"in THF, 288.15 K",0.196
same,solubility (mole fraction),"in THF, 293.15 K",0.209
same,solubility (mole fraction),"in THF, 298.15 K",0.222
same,solubility (mole fraction),"in THF, 303.15 K",0.236
same,solubility (mole fraction),"in THF, 308.15 K",0.248
same,solubility (mole fraction),"in THF, 313.15 K",0.26
same,solubility (mole fraction),"in THF, 318.15 K",0.271
same,solubility (mole fraction),"in THF, 323.15 K",0.282
same,solubility (mole fraction),"in THF, 328.15 K",0.293
same,solubility (mole fraction),"in acetonitrile, 278.15 K",0.00326
same,solubility (mole fraction),"in acetonitrile, 283.15 K",0.00387
same,solubility (mole fraction),"in acetonitrile, 288.15 K",0.00473
same,solubility (mole fraction),"in acetonitrile, 293.15 K",0.006
same,solubility (mole fraction),"in acetonitrile, 298.15 K",0.00665
same,solubility (mole fraction),"in acetonitrile, 303.15 K",0.00779
same,solubility (mole fraction),"in acetonitrile, 308.15 K",0.00955
same,solubility (mole fraction),"in acetonitrile, 313.15 K",0.0113
same,solubility (mole fraction),"in acetonitrile, 318.15 K",0.0138
same,solubility (mole fraction),"in acetonitrile, 323.15 K",0.0164
same,solubility (mole fraction),"in acetonitrile, 328.15 K",0.0194
same,solubility (mole fraction),"in cyclohexane, 283.15 K",0.00076
same,solubility (mole fraction),"in cyclohexane, 288.15 K",0.00092
same,solubility (mole fraction),"in cyclohexane, 293.15 K",0.00113
same,solubility (mole fraction),"in cyclohexane, 298.15 K",0.00135
same,solubility (mole fraction),"in cyclohexane, 303.15 K",0.00162
same,solubility (mole fraction),"in cyclohexane, 308.15 K",0.00197
same,solubility (mole fraction),"in cyclohexane, 313.15 K",0.00249
same,solubility (mole fraction),"in cyclohexane, 318.15 K",0.00312
same,solubility (mole fraction),"in cyclohexane, 323.15 K",0.00422
same,solubility (mole fraction),"in cyclohexane, 328.15 K",0.00529
same,solubility (mole fraction),"in ethanol, 278.15 K",0.0358
same,solubility (mole fraction),"in ethanol, 283.15 K",0.0398
same,solubility (mole fraction),"in ethanol, 288.15 K",0.0449
same,solubility (mole fraction),"in ethanol, 293.15 K",0.0513
same,solubility (mole fraction),"in ethanol, 298.15 K",0.0563
same,solubility (mole fraction),"in ethanol, 303.15 K",0.0631
same,solubility (mole fraction),"in ethanol, 308.15 K",0.0703
same,solubility (mole fraction),"in ethanol, 313.15 K",0.0831
same,solubility (mole fraction),"in ethanol, 318.15 K",0.0936
same,solubility (mole fraction),"in ethanol, 323.15 K",0.104
same,solubility (mole fraction),"in ethanol, 328.15 K",0.121
same,solubility (mole fraction),"in ethyl acetate, 278.15 K",0.027
same,solubility (mole fraction),"in ethyl acetate, 283.15 K",0.031
same,solubility (mole fraction),"in ethyl acetate, 288.15 K",0.0359
same,solubility (mole fraction),"in ethyl acetate, 293.15 K",0.0413
same,solubility (mole fraction),"in ethyl acetate, 298.15 K",0.0464
same,solubility (mole fraction),"in ethyl acetate, 303.15 K",0.0524
same,solubility (mole fraction),"in ethyl acetate, 308.15 K",0.0601
same,solubility (mole fraction),"in ethyl acetate, 313.15 K",0.0677
same,solubility (mole fraction),"in ethyl acetate, 318.15 K",0.0775
same,solubility (mole fraction),"in ethyl acetate, 323.15 K",0.0879
same,solubility (mole fraction),"in ethyl acetate, 328.15 K",0.101
same,solubility (mole fraction),"in methanol, 278.15 K",0.0205
same,solubility (mole fraction),"in methanol, 283.15 K",0.0261
same,solubility (mole fraction),"in methanol, 288.15 K",0.0301
same,solubility (mole fraction),"in methanol, 293.15 K",0.0355
same,solubility (mole fraction),"in methanol, 298.15 K",0.041
same,solubility (mole fraction),"in methanol, 303.15 K",0.0479
same,solubility (mole fraction),"in methanol, 308.15 K",0.0559
same,solubility (mole fraction),"in methanol, 313.15 K",0.0641
same,solubility (mole fraction),"in methanol, 318.15 K",0.0724
same,solubility (mole fraction),"in methanol, 323.15 K",0.0815
same,solubility (mole fraction),"in methanol, 328.15 K",0.0895
